From patent US20230277494A1, “TRANS-CROCETIN COMPOSITIONS AND TREATMENT REGIMENS” (priority 2020, published 2023)

How the values were obtained:
[1] = mouse, in vivo, iv
[2] = human, in vivo; cited from earlier work
[3] = diffusion of oxygen in plasma, FIG. 12; cited from earlier work
[4] = Phase 2 clinical study of liposomal trans-crocetin, pharmacokinetics; conditions: human, in vivo
Text: A phase 2 clinical study was initiated to assess the safety and efficacy of liposomal trans-crocetin in patients with acute respiratory distress syndrome due to COVID-19 disease. This was an open label phase II study of treatment with liposomal trans-crocetin in patients who experience severe acute respiratory distress syndrome (ARDS) and were receiving artificial respiratory support due to COVID-19. The purpose of this study was to evaluate the improvement in PaO2/FiO2 by more than 25% in two cohorts of patients treated liposomal trans-crocetin. In the first cohort, patients received trans-crocetin at a dose of 0.25 mg/kg administered as intravenous (IV) bolus every 3 hours. The second cohort was treated by a liposomal formulation containing trans-crocetin. […] Pharmacokinetic assessment was carried out to identify an optimal dose and schedule. […] Secondary outcome measures included (1) proportion of patients with a PaO2/FiO2 ratio above 200 mm Hg (Time Frame: 24, 48 and 72 hours), and (2) all cause mortality (Time Frame: 28 days).
The primary purpose of this study was to determine a safe dosing regimen of liposomal trans-crocetin and to assess preliminary efficacy as measured by improvement in PaO2/FiO2 by more than 25% in patients treated with liposome encapsulated trans-crocetin, as well as safety and the pharmacokinetic profile of liposome encapsulated trans-crocetin. […]

CC(/C=C/C=C(\C)C(=O)[O-])=C\C=C\C=C(C)\C=C\C=C(/C)C(=O)[O-].[Na+].[Na+] [STC free drug, sodium trans-crocetinate]
Cmax [1]: 360 µg/mL
safety in clinical trials [2]: no safety concerns

CC(/C=C/C=C(\C)C(=O)O)=C\C=C\C=C(C)\C=C\C=C(/C)C(=O)O [trans-crocetin]
improvement in diffusion capacity [3]: 30%
AUC and Cmax across a wide range of body weights [4]: stable levels
